Patent publication EP4729529A1, “PREPARATION OF PEPTIDE INHIBITOR OF INTERLEUKIN-23 RECEPTOR AND USE THEREOF” (Xizang Haisco Pharmaceutical Co., Ltd., priority 2023, dated 2024)
Positions of bridges follow the written chain, without caps; N, C: chain ends. Non-standard residues stand in square brackets, D forms with d. Residues, ends and D or L forms follow the SMILES beside them. Phe(4-OC2H4NH2,2,3-(CH2)3) = NCCOc1ccc(C[C@H](N)C(=O)O)c2c1CCC2; Trp(7-Me) = Cc1cccc2c(C[C@H](N)C(=O)O)c[nH]c12; 2Nal = N[C@@H](Cc1ccc2ccccc2c1)C(=O)O; 3Pal = N[C@@H](Cc1cccnc1)C(=O)O; Pen = CC(C)(S)[C@H](N)C(=O)O; Thp = NC1(C(=O)O)CCOCC1; Sar = CNCC(=O)O

Experiments:
[1] = Test of stability in plasma, dog; format: in vitro ADME; settings: read-out: Residual rate% at 37°C for 6 h
Method: (§1) 5. Test of stability in plasma
(§2) In this experiment, plasmas of five species, including human, monkey, dog, rat, and mouse, were used to evaluate the stability in plasma of Compound 7.
(§3) A plasma sample was prepared at a concentration level of 1000 ng/mL, and dispensed into EP tubes at time points 0 h and 6 h. Acetonitrile solution containing an internal standard was added directly to the 0 h sample; and the 6 h sample was placed at 37°C for the corresponding time, and then added with an acetonitrile solution containing internal standard. The concentration of the test compound in the sample was measured by the LC-MS/MS method, and the residual rate was calculated from the ratio of the peak areas of the test compound to the internal standard in the time point sample and the 0 h sample.
(§4) Experimental results: At the concentration level of 1000 ng/mL under the test conditions, the residual rates of the test Compounds were shown in Table 6 below. Table 6. Residual rate% at 37°C for 6 h

[2] = molecular target: (Homo sapiens, UniProt Q5VWK5); assay: IL-23-stimulated pSTAT3 detection assay in PBMCs (ELISA); format: cell-based; settings: rhIL23 stimulation 30 minutes, read-out: pSTAT3 inhibition/IC50
Method: 3. IL-23-stimulated pSTAT3 detection assay in PBMCs
Cryopreserved human PBMCs were thawed, and seeded onto a plate previously covered with an anti-CD3 antibody at 1 × 10^6 cells/well. Then, an anti-CD28 antibody was added to the plate, and the cells were incubated at 37°C with 5% CO2 for 5 days. On Day 5, the cells were seeded onto a 96-well plate at a density of 100K cells/well after 4 hours of stimulation by FBS starvation. The diluted Compound was transferred into the 96-well cell culture plate, and the plate was incubated at 37°C with 5% CO2 for 1 hour. rhIL23 (R&D, 1290-IL) was added to the cell culture plate, and the plate was incubated at 37°C with 5% CO2 for 30 minutes. The cells in the wells were lysed on ice with a lysis buffer containing 1× PHOSstop solution for 30 minutes, and the plate was centrifuged at 1000 rpm for 1 minute. Then, the supernatant was transferred into a 96-well ELISA plate, and pSTAT3 ELISA assay was performed according to the instructions of the kit (CST, 7300CA). Absorbance values at […] were read on PHERAstar FSX (BMG LRBTECH). The inhibition rate of the compounds was assessed using the following formula, and IC50 values were obtained by fitting with Graphpad.
Calculation formula of inhibition rate: [formula] • where Data negative: mean of DMSO control group; and • Data positive: mean of non-IL23-stimulated group
The calculation formula of IC50 was as follows: Y = Bottom + (Top−Bottom)/(1+10^(∧)((LogIC50−X)*HillSlope)) [formula] • where X: concentration of compound; and • Y: inhibition rate of compound. Table 3. pSTAT3 inhibition

[3] = Test of stability in plasma, monkey; format: in vitro ADME; settings: read-out: Residual rate% at 37°C for 6 h
Method: as §1, §2, §3, §4

[4] = Test of stability in gastrointestinal fluid: simulated gastric fluid (pepsin); format: in vitro ADME; settings: 0.5 mg/ml, 37°C
Method: (§5) 6. Test of stability in gastrointestinal fluid
1.1. Preparation of dilute hydrochloric acid: 23.4 ml of hydrochloric acid was diluted with water to 1000 ml.
1.2. Preparation of simulated gastric fluid: 1.64 ml of dilute hydrochloric acid and 1 g of pepsin were added to about 80 ml of water. After being shaken well, the mixture was diluted with water to 100 ml.
(§6) About 12.5 mg of the sample was added to a 25 ml volumetric flask and dissolved in the simulated gastric fluid (or simulated intestinal fluid), and the mixture was diluted to the mark.
(§7) Instrument model: Agilent 1260 Infinity; mobile phase A: 10 mmol/L K2HPO4, and mobile phase B: acetonitrile; column: Phenomenex Gemini^@ 3 um C18 110Å 150 * 4.6 mm; wavelength: 224 nm; column temperature: 30°C; sample tray temperature: 37°C; injection time: 35 min; injection volume: 10 ul; injection mode: gradient injection; and gradient method. Table 7. Gradient mobile phase
(§8) Sampling and testing: Firstly, the blank solution (simulated gastric fluid or simulated intestinal fluid) was tested. Then, the prepared sample (newly prepared for use) was placed in the injection tray for immediate injection. Then, a needle of sample was injected at 4.5 h, 9.5 h, and 18 h, respectively.
(§9) Table 8. Stability in gastrointestinal fluid

[5] = Test of stability in gastrointestinal fluid: simulated intestinal fluid (trypsin, pH 6.8); format: in vitro ADME; settings: 0.5 mg/ml, 37°C
Method: as §5
1.3. Preparation of 0.1 mol/L NaOH: 0.4 g of NaOH was dissolved in 100 ml of water.
1.4. Preparation of simulated intestinal fluid: 0.68 g of potassium dihydrogen phosphate was dissolved in 50 ml of water, and the pH value was adjusted to 6.8 with 0.1 mol/L sodium hydroxide solution. 1 g of trypsin was dissolved in an appropriate amount of water. After the two solutions were mixed, the mixture was diluted with water to 1000 ml.
as §6, §7, §8, §9

(Homo sapiens, UniProt Q5VWK5), sequence (Q5VWK5 24-629, other chains not shown): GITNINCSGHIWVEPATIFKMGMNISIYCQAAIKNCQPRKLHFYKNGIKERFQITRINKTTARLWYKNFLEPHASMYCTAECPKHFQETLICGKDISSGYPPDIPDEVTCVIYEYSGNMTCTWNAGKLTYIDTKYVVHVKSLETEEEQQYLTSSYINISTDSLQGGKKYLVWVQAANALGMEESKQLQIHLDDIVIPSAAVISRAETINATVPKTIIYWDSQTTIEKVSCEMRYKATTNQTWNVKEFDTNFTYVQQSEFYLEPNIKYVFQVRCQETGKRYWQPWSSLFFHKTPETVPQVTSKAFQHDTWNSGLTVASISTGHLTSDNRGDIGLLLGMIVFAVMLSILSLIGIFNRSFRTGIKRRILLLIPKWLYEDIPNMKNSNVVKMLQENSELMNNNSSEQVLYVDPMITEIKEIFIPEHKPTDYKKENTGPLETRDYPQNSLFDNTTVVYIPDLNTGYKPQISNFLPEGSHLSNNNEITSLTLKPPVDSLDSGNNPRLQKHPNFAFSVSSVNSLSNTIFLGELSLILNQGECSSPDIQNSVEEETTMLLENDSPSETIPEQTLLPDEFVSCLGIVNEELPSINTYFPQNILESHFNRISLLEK
(Homo sapiens, UniProt Q5VWK5), sequence (Q9NPF7 20-189 partner, other chains not shown): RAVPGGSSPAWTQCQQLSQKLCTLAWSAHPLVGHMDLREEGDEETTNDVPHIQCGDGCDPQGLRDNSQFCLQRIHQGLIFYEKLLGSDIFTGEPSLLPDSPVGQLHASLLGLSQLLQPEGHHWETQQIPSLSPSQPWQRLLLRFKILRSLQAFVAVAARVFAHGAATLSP
(Homo sapiens, UniProt Q5VWK5), sequence (P29460 23-328 partner, other chains not shown): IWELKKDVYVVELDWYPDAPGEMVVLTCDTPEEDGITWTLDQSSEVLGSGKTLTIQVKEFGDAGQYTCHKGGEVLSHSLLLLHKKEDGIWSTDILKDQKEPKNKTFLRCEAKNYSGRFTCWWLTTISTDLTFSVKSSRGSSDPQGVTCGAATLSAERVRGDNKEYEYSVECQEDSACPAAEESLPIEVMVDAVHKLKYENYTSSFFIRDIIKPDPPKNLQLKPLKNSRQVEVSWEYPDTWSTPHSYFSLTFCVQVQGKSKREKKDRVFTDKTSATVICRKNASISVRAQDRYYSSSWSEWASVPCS

CC(=O)NCCCC[C@@H]1NC(=O)[C@H](Cc2c[nH]c3c(C)cccc23)NC(=O)[C@H]([C@@H](C)O)NC(=O)[C@H](Cc2c[nH]cn2)NC(=O)[C@@H](NC(C)=O)C(C)(C)SSC(C)(C)[C@@H](C(=O)N[C@@H](Cc2ccc(OCCN)c3c2CCC3)C(=O)N[C@@H](Cc2ccc3ccccc3c2)C(=O)NC2(C(=O)N[C@@H](CCC(=O)O)C(=O)N[C@@H](CC(N)=O)C(=O)N[C@@H](Cc3cccnc3)C(=O)N(C)CC(N)=O)CCOCC2)NC1=O [Compound 7] (Ac-[Pen]HT[Trp(7-Me)]K(Ac)[Pen][Phe(4-OC2H4NH2,2,3-(CH2)3)][2Nal][Thp]EN[3Pal][Sar]-NH2; disulfide 1-6)
remaining at 6 h, 1000 ng/mL [1]: > 99%
IC50 [2]: 1.4 pM
remaining at 6 h, 1000 ng/mL [3]: > 99%
Peak area% ([4]; 0 h): 95.281%
Peak area% ([4]; 4.5 h): 94.678%
Peak area% ([4]; 9.5 h): 96.304%
Peak area% ([4]; 18 h): 93.661%
Peak area% ([5]; 0 h): 94.095%
Peak area% ([5]; 4.5 h): 93.552%
Peak area% ([5]; 9.5 h): 93.575%
Peak area% ([5]; 18 h): 94.831%
